Test results taken from patent publication US8192962B2, “Processes for detecting toxic substances” (Daikin Industries, Ltd., priority 2001, dated 2012).

Test system: Energy system protein genes
Experiment: DNA chip mRNA expression in yeast, energy system protein genes (Table 4)
Assay type: cell-based, Saccharomyces cerevisiae S288C
Experimental: Yeast (Saccharomyces cerevisiae S288C (α SUC2mal mel gap2 CUP1)) were incubated at 25° C. on YPD medium (yeast extract 1%, polypepton 2%, glucose 2%). One of toxic chemical substances was added to the cells at logarithmic growth phase, and the cells were further incubated for two hours. Cells were cultured without any chemical substance in the same condition, and were used as control. Concentrations of the chemical substances were defined to inhibit the growth of the yeast but not lead to death.
After completion of the incubation, the culture was centrifuged to collect the cells. To the cells, sodium acetate buffer (50 mM sodium acetate, 10 mM EDTA, 1% SDS) was added, and the mixture was shaken at 65° C. for five minutes, followed by returning to room temperature, and obtaining the supernatant, of which the procedures were repeated two times. To the supernatant, ½ amount of a solution of phenol/chloroform was added, and the mixture was centrifuged to give a supernatant, which was added with an equal amount of chloroform, and the mixture was centrifuged to give a supernatant. To the supernatant, an equal amount of isopropanol containing 0.3 M sodium acetate was added, and the mixture was allowed to stand at room temperature for 30 minutes, after which the mixture was centrifuged to give a sediment of the whole RNAs. Seventy % ethanol was added to the sediment, and the mixture was again centrifuged to give a sediment, which was then dried and dissolved in water. mRNA was isolated from the whole RNAs as followings. In view of the fact that a poly A chain is attached to the 3′ terminus of mRNA, a polynucleotide having a poly T structure which was immobilized on the surface of latex beads was used to trap the mRNA, and then the mRNA was washed and eluted with spine column (Oligotex-dT30<Super>mRNA Purification Kit, Takara). Reverse transcription of the mRNA was conducted with a reverse transcriptase (Super Script II Reverse Transcriptase; catalogue No. 18064-014, GibcoBRL) using fluorescence-labeled nucleotides to give cDNAs that were introduced with Cy3-dUTP or Cy5-dUTP during the reverse transcription.
The labeled cDNAs were dissolved in TE buffer (10mM Tris-HCl/1 mM EDTA, pH8.0), and the solution was dropped on the DNA chip containing the whole genes of yeast (DNA Chip Research Inc. Japan) so that the cDNAs were hybridized on the DNA chip at 65° C. for over 12 hours. The fluoresces intensity of the DNA chip was read with a scanner, and the ratio relative to the fluorescence intensity resulting from the absence of chemical substance was estimated as the following, which is shown in Tables 1 to 9: […]

What does the source list for `Cl[C@H]1[C@H](Cl)[C@@H](Cl)[C@@H](Cl)[C@H](Cl)[C@H]1Cl` [(7), γ-hexachlorocyclohexane]?
The level of expressed mRNA in the presence of chemical substance/The level of expressed mRNA in the absence of chemical substance (yeast gene YAL060W): 3.3; The level of expressed mRNA in the presence of chemical substance/The level of expressed mRNA in the absence of chemical substance (yeast gene YBL058W, cells incubated two hours with the chemical substance): 1.5; The level of expressed mRNA in the presence of chemical substance/The level of expressed mRNA in the absence of chemical substance (yeast gene YBL099W, cells incubated two hours with the chemical substance): 0.9; The level of expressed mRNA in the presence of chemical substance/The level of expressed mRNA in the absence of chemical substance (yeast gene YBR001C, cells incubated two hours with the chemical substance): 0.9; The level of expressed mRNA in the presence of chemical substance/The level of expressed mRNA in the absence of chemical substance (yeast gene YBR185C, cells incubated two hours with the chemical substance): 1.2; The level of expressed mRNA in the presence of chemical substance/The level of expressed mRNA in the absence of chemical substance (yeast gene YBR221C, cells incubated two hours with the chemical substance): 1.5; The level of expressed mRNA in the presence of chemical substance/The level of expressed mRNA in the absence of chemical substance (yeast gene YCL040W): 2.9; The level of expressed mRNA in the presence of chemical substance/The level of expressed mRNA in the absence of chemical substance (yeast gene YCR012W): 1.4; The level of expressed mRNA in the presence of chemical substance/The level of expressed mRNA in the absence of chemical substance (yeast gene YCR046C, cells incubated two hours with the chemical substance): 1.2; The level of expressed mRNA in the presence of chemical substance/The level of expressed mRNA in the absence of chemical substance (yeast gene YCR105W, cells incubated two hours with the chemical substance): 1.0; The level of expressed mRNA in the presence of chemical substance/The level of expressed mRNA in the absence of chemical substance (yeast gene YDL021W): 5.9; The level of expressed mRNA in the presence of chemical substance/The level of expressed mRNA in the absence of chemical substance (yeast gene YDL067C, cells incubated two hours with the chemical substance): 0.8; The level of expressed mRNA in the presence of chemical substance/The level of expressed mRNA in the absence of chemical substance (yeast gene YDL078C, cells incubated two hours with the chemical substance): 1.7; The level of expressed mRNA in the presence of chemical substance/The level of expressed mRNA in the absence of chemical substance (yeast gene YDL107W, cells incubated two hours with the chemical substance): 1.8; The level of expressed mRNA in the presence of chemical substance/The level of expressed mRNA in the absence of chemical substance (yeast gene YDL174C): 3.6; The level of expressed mRNA in the presence of chemical substance/The level of expressed mRNA in the absence of chemical substance (yeast gene YDL181W, cells incubated two hours with the chemical substance): 1.1; The level of expressed mRNA in the presence of chemical substance/The level of expressed mRNA in the absence of chemical substance (yeast gene YDR001C): 1.5; The level of expressed mRNA in the presence of chemical substance/The level of expressed mRNA in the absence of chemical substance (yeast gene YDR050C, cells incubated two hours with the chemical substance): 1.5; The level of expressed mRNA in the presence of chemical substance/The level of expressed mRNA in the absence of chemical substance (yeast gene YDR079W, cells incubated two hours with the chemical substance): 1.3; The level of expressed mRNA in the presence of chemical substance/The level of expressed mRNA in the absence of chemical substance (yeast gene YDR178W, cells incubated two hours with the chemical substance): 0.6; The level of expressed mRNA in the presence of chemical substance/The level of expressed mRNA in the absence of chemical substance (yeast gene YDR231C): 1.7; The level of expressed mRNA in the presence of chemical substance/The level of expressed mRNA in the absence of chemical substance (yeast gene YDR298C, cells incubated two hours with the chemical substance): 1.0; The level of expressed mRNA in the presence of chemical substance/The level of expressed mRNA in the absence of chemical substance (yeast gene YDR377W, cells incubated two hours with the chemical substance): 1.1; The level of expressed mRNA in the presence of chemical substance/The level of expressed mRNA in the absence of chemical substance (yeast gene YDR529C, cells incubated two hours with the chemical substance): 0.5; The level of expressed mRNA in the presence of chemical substance/The level of expressed mRNA in the absence of chemical substance (yeast gene YEL024W, cells incubated two hours with the chemical substance): 0.7; The level of expressed mRNA in the presence of chemical substance/The level of expressed mRNA in the absence of chemical substance (yeast gene YEL039C, cells incubated two hours with the chemical substance): 0.6; The level of expressed mRNA in the presence of chemical substance/The level of expressed mRNA in the absence of chemical substance (yeast gene YER178W): 1.6; The level of expressed mRNA in the presence of chemical substance/The level of expressed mRNA in the absence of chemical substance (yeast gene YFL057C): 1.8; The level of expressed mRNA in the presence of chemical substance/The level of expressed mRNA in the absence of chemical substance (yeast gene YFR053C): 2.1; The level of expressed mRNA in the presence of chemical substance/The level of expressed mRNA in the absence of chemical substance (yeast gene YGL018C, cells incubated two hours with the chemical substance): 1.1; The level of expressed mRNA in the presence of chemical substance/The level of expressed mRNA in the absence of chemical substance (yeast gene YGL062W): 1.3; The level of expressed mRNA in the presence of chemical substance/The level of expressed mRNA in the absence of chemical substance (yeast gene YGL187C, cells incubated two hours with the chemical substance): 0.6; The level of expressed mRNA in the presence of chemical substance/The level of expressed mRNA in the absence of chemical substance (yeast gene YGL191W, cells incubated two hours with the chemical substance): 1.0; The level of expressed mRNA in the presence of chemical substance/The level of expressed mRNA in the absence of chemical substance (yeast gene YGL205W, cells incubated two hours with the chemical substance): 0.8; The level of expressed mRNA in the presence of chemical substance/The level of expressed mRNA in the absence of chemical substance (yeast gene YGL256W, cells incubated two hours with the chemical substance): 0.5; The level of expressed mRNA in the presence of chemical substance/The level of expressed mRNA in the absence of chemical substance (yeast gene YGR008C): 3.7; The level of expressed mRNA in the presence of chemical substance/The level of expressed mRNA in the absence of chemical substance (yeast gene YGR043C): 6.5; The level of expressed mRNA in the presence of chemical substance/The level of expressed mRNA in the absence of chemical substance (yeast gene YGR062C, cells incubated two hours with the chemical substance, 25° C., YPD medium): 1.3; The level of expressed mRNA in the presence of chemical substance/The level of expressed mRNA in the absence of chemical substance (yeast gene YGR087C, cells incubated two hours with the chemical substance): 1.0; The level of expressed mRNA in the presence of chemical substance/The level of expressed mRNA in the absence of chemical substance (yeast gene YGR174C, cells incubated two hours with the chemical substance): 1.0; The level of expressed mRNA in the presence of chemical substance/The level of expressed mRNA in the absence of chemical substance (yeast gene YGR192C): 1.7; The level of expressed mRNA in the presence of chemical substance/The level of expressed mRNA in the absence of chemical substance (yeast gene YGR244C): 3.9; The level of expressed mRNA in the presence of chemical substance/The level of expressed mRNA in the absence of chemical substance (yeast gene YGR254W): 1.5; The level of expressed mRNA in the presence of chemical substance/The level of expressed mRNA in the absence of chemical substance (yeast gene YHR179W): 1.9; The level of expressed mRNA in the presence of chemical substance/The level of expressed mRNA in the absence of chemical substance (yeast gene YIL160C): 1.1; The level of expressed mRNA in the presence of chemical substance/The level of expressed mRNA in the absence of chemical substance (yeast gene YIR031C, cells incubated two hours with the chemical substance): 1.4; The level of expressed mRNA in the presence of chemical substance/The level of expressed mRNA in the absence of chemical substance (yeast gene YJL052W): 2.1; The level of expressed mRNA in the presence of chemical substance/The level of expressed mRNA in the absence of chemical substance (yeast gene YJL121C, cells incubated two hours with the chemical substance): 0.7; The level of expressed mRNA in the presence of chemical substance/The level of expressed mRNA in the absence of chemical substance (yeast gene YJL166W, cells incubated two hours with the chemical substance): 0.8; The level of expressed mRNA in the presence of chemical substance/The level of expressed mRNA in the absence of chemical substance (yeast gene YJL216C, cells incubated two hours with the chemical substance): 1.5
